System: MDA-MB-231 cells
Assay: Extracellular lactate production inhibition after 4 h, MDA-MB-231
Details: Homo sapiens, MDA-MB-231

| IC50 | SMILES |
| --- | --- |
| 1 to 100 µM | COc1ccc(S(=O)(=O)N(C)c2ccccc2C#Cc2cnc(C(=O)O)cc2C)c2ncccc12 [Compound 123, 4-methyl-5-{2-[2-(N-methyl5-methoxyquinoline-8-sulfonamido)phenyl]ethynyl}pyridine-2-carboxylic acid] |
| 0.1 to 1 µM | O=C(O)c1ccc(C#Cc2ccccc2NS(=O)(=O)c2ccc3c(c2)[nH]c2ccccc23)cn1 [Compound 124, 5-{2-[2-(9H-carbazole-2-sulfonamido)phenyl]ethynyl}pyridine-2-carboxylic acid] |
| 0.1 to 1 µM | COc1ccc(-c2cccc(S(=O)(=O)Nc3ccccc3C#Cc3ccc(C(=O)O)nc3)c2)c(OC)n1 [Compound 125, 5-(2-{2-[3-(2,6-dimethoxypyridin-3-yl)benzenesulfonamido]phenyl}-ethynyl)pyridine-2-carboxylic acid] |
| 0.1 to 1 µM | O=C(O)c1ccc(C#Cc2ccccc2NS(=O)(=O)N2CCc3ccccc32)cn1 [Compound 126, 5-(2-{2-[(2,3-dihydro-1H-indole-1-sulfonyl)amino]phenyl}ethynyl)pyridine-2-carboxylic acid] |
| 0.1 to 1 µM | COc1cccc(-c2cccc(S(=O)(=O)Nc3ccccc3C#Cc3ccc(C(=O)O)nc3)c2)n1 [Compound 127, 5-(2-{2-[3-(6-methoxypyridin-2-yl)benzenesulfonamido]phenyl}-ethynyl)pyridine-2-carboxylic acid] |
| 0.1 to 1 µM | O=C(O)c1ccc(C#Cc2ccccc2NS(=O)(=O)c2ccc(Br)c3ccccc23)cn1 [Compound 128, 5-{2-[2-(4-bromonaphthalene-1-sulfonamido)phenyl]ethynyl}pyridine-2-carboxylic acid] |
| 0.01 to 0.1 µM | COC(=O)c1ccc(C#Cc2ccccc2NS(=O)(=O)c2ccc(OC)c3cccnc23)cn1 [Compound 129, methyl 5-{2-[2-(5-methoxyquinoline-8-sulfonamido)phenyl]ethynyl}pyridine-2-carboxylate] |
| 1 to 100 µM | COc1ccc(S(=O)(=O)Nc2ccccc2C#Cc2ccc(C(=O)O)nc2C)c2ncccc12 [Compound 130, 5-{2-[2-(5-methoxyquinoline-8-sulfonamido)phenyl]ethynyl}-6-methylpyridine-2-carboxylic acid] |
| 0.1 to 1 µM | COC(=O)c1ccc(C#Cc2ccccc2NS(=O)(=O)c2cccc(-c3cccnc3)c2)cn1 [Compound 131, methyl 5-(2-{2-[3-(pyridin-3-yl)benzenesulfonamido]phenyl}-ethynyl)pyridine-2-carboxylate] |
| 0.01 to 0.1 µM | COC(=O)c1ccc(C#Cc2ccccc2NS(=O)(=O)c2ccc3c(c2)Cc2ccccc2-3)cn1 [Compound 132, methyl 5-{2-[2-(9H-fluorene-2-sulfonamido)phenyl]ethynyl}pyridine-2-carboxylate] |
| 0.1 to 1 µM | COC(=O)c1ccc(C#Cc2ccccc2NS(=O)(=O)c2ccc(-n3cccn3)cc2)cn1 [Compound 133, methyl 5-(2-{2-[4-(1H-pyrazol-1-yl)benzenesulfonamido]phenyl}-ethynyl)pyridine-2-carboxylate] |
| 0.01 to 0.1 µM | COC(=O)c1ccc(C#Cc2cc(F)ccc2NS(=O)(=O)c2c(C)ccc3cccnc23)cn1 [Compound 134, methyl 5-{2-[5-fluoro-2-(7-methylquinoline-8-sulfonamido)phenyl]ethynyl}pyridine-2-carboxylate] |
| 0.1 to 1 µM | COC(=O)c1ccc(C#Cc2ccccc2NS(=O)(=O)c2ccccc2-c2ccccc2)cn1 [Compound 135, methyl 5-[2-(2-{[1,1′-biphenyl]-2-sulfonamido}phenyl)ethynyl]pyridine-2-carboxylate] |
| 1 to 100 µM | COC(=O)c1ccc(C#Cc2ccccc2NS(=O)(=O)c2cnn(-c3ccccc3)c2)cn1 [Compound 136, methyl 5-{2-[2-(1-phenyl-1H-pyrazole-4-sulfonamido)phenyl]ethynyl}pyridine-2-carboxylate] |
| 0.1 to 1 µM | COC(=O)c1cc(C)c(C#Cc2ccccc2NS(=O)(=O)c2c(C)ccc3cccnc23)cn1 [Compound 137, methyl 4-methyl-5-{2-[2-(7-methylquinoline-8-sulfonamido)phenyl]ethynyl}pyridine-2-carboxylate] |
